These results are taken from PMC2765047 (Journal of medicinal chemistry, 2009).

Where two headings read alike, the source gives them in different places.

One series has as its system HCMV. The note with it: ref [1]; cited from earlier work.
In another series the test system is HCMV Towne. The experiment in a line: HCMV plaque reduction assay, Towne strain, in HFF cells. It counts as cell-based, human cytomegalovirus (HCMV). The note with it: Human betaherpesvirus 5, HFF, read-out: EC50 Virus Strain Towne.
Series [1] deals with HFF cells. The note with it: read-out: CC50 HCMV/HFF Towne; visual cytotoxicity in uninfected HFF's; ref [2]; cited from earlier work.
For series [2], the system named is HFF cells. The note with it: read-out: CC50 HCMV/HFF AD169; cytotoxicity by neutral red uptake; ref [2]; cited from earlier work.
The subject of another series is Akata cells. The note with it: read-out: CC50 EBV/Akata, ref [28]; cited from earlier work.
Series [3] in a line: Visual cytotoxicity in uninfected HFF's used in plaque reduction assays. In kind it is cell-based. Conditions: human.
Series [4] can be described thus: Cytotoxicity by neutral red uptake. It counts as cell-based. Conditions: human.
The target in the next series is T1, ADA from calf intestine (Bos taurus, UniProt P56658).
T1 sequence (P56658 1-363): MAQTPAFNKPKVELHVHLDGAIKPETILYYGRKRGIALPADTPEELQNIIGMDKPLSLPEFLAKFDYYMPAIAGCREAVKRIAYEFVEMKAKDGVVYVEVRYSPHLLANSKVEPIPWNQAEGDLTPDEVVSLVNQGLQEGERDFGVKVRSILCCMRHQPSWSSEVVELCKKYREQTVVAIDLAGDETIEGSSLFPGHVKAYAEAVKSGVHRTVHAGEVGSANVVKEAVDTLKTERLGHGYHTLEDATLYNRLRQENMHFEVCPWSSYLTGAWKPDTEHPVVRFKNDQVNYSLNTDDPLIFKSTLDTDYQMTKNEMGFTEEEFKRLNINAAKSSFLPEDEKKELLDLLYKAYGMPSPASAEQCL
The experiment in a line: Adenosine deaminase. In kind it is biochemical.

Another series in a line: in vitro. In kind it is cell-based. The note with it: human.
The test system of the next series is HSV-1. Kind of series: HSV-1 antiviral assay. In kind it is cell-based, herpes simplex virus 1. The note with it: human foreskin fibroblast (HFF) culture.
The test system of the next series is HSV-2. Kind of series: HSV-2 antiviral assay. It counts as cell-based, herpes simplex virus 2. The note with it: human foreskin fibroblast (HFF) culture.

With `Nc1c2ncnc-2ncn1/C=C1\CC1CO` (centres unmarked) [Compound 1a, synadenol], the “activity against HCMV (in words)” value in the series with HCMV is given as “effective”. In the case of `Nc1nc(O)c2ncn(/C=C3/CC3CO)c2n1` (centres unmarked) [Compound 1b], the “activity against HCMV (in words)” value in the series with HCMV is “highly effective”. On to `Nc1ncnc2c1ncn2C=C1CC1(CO)CO` [Compound 3a], for which the “activity against HCMV (in words)” value in the series with HCMV was “effective”.

With `Nc1nc2c(ncn2/C=C2/CC2(CO)CO)c(=O)[nH]1` [Compound 3b, cyclopropavir], the EC50 in the series with HCMV Towne came out at 0.6 µM. Further, the CC50 with HFF cells [1] is greater than 100 µM; in the series on HFF cells [2] it was greater than 100 µM; in the series on Akata cells, 46 µM. The “activity against HCMV (in words)” value in the series on HCMV is reported as “highly effective”. Turning to `Nc1ncnc2c1ncn2/C=C1/C[C@@H]1[C@H](O)CO` [Compound 12a], the values for the CC50 in series [3] and in [4] were greater than 100 µM and greater than 300 µM, respectively. The corresponding values for `Nc1nc2c(ncn2/C=C2/C[C@@H]2[C@H](O)CO)c(=O)[nH]1` [Compound 12b, (+)-9-{(Z)-{(S)-2-[(S)-1,2-Dihydroxyethyl)cyclopropylidene]methyl}guanine] are greater than 100 µM and greater than 300 µM. On to `Nc1ncnc2c1ncn2/C=C1\C[C@@H]1[C@H](O)CO` [Compound 13a], for which the CC50 in series [4] was greater than 300 µM.

In the case of `Nc1nc2c(ncn2/C=C2\C[C@@H]2[C@H](O)CO)c(=O)[nH]1` [Compound 13b], the CC50 in series [3] was greater than 100 µM. The same measure, in the same setting: to `Nc1ncnc2c1ncn2/C=C1/C[C@@H]1[C@@H](O)CO` [Compound 14a] belongs greater than 100 µM. As to `Nc1nc2c(ncn2/C=C2/C[C@@H]2[C@@H](O)CO)c(=O)[nH]1` [Compound 14b], the CC50 in [3] is greater than 100 µM; in series [4] it was greater than 300 µM. On the same counts, the results for `Nc1ncnc2c1ncn2/C=C1\C[C@@H]1[C@@H](O)CO` [Compound 15a] are greater than 100 µM and greater than 300 µM. On the same counts, the results for `Nc1nc2c(ncn2/C=C2\C[C@@H]2[C@@H](O)CO)c(=O)[nH]1` [Compound 15b] are greater than 100 µM and greater than 300 µM. For `Nc1nc2c(ncn2COC(CO)CO)c(=O)[nH]1` [Ganciclovir, ganciclovir], the EC50 in the series with HCMV Towne was 2 µM. Take `Nc1ncnc2c1ncn2/C=C1/C[C@H]1[C@@H](O)CO` [ent-12a]: the CC50 in series [3] was greater than 100 µM; in series [4], 194 µM. For the same compound, the “substrate activity toward ADA (in words)” value at ADA from calf intestine is on record as “resistant to deamination”. Consider `Nc1nc2c(ncn2/C=C2/C[C@H]2[C@@H](O)CO)c(=O)[nH]1` [ent-12b], for which, in “in vitro”, the CC50 worked out at 284 µM. The “activity against HSV-1 (in words)” value with HSV-1 was “inactive”. Besides, the “activity against HSV-2 (in words)” value in the series on HSV-2 was “inactive”. As to `Nc1ncnc2c1ncn2/C=C1\C[C@H]1[C@@H](O)CO` [ent-13a], the CC50 in [3] was greater than 100 µM. The compound `Nc1nc2c(ncn2/C=C2\C[C@H]2[C@@H](O)CO)c(=O)[nH]1` [ent-13b] showed a CC50 in series [3] greater than 100 µM.

Consider `Nc1ncnc2c1ncn2/C=C1/C[C@H]1[C@H](O)CO` [ent-14a], for which the CC50 in series [3] was greater than 100 µM. On ADA from calf intestine, the “substrate activity toward ADA (in words)” value was “resistant to deamination”. As for `Nc1nc2c(ncn2/C=C2/C[C@H]2[C@H](O)CO)c(=O)[nH]1` [ent-14b], the CC50 in series [3] and in series [4] was greater than 300 µM each time.

In turn, `Nc1ncnc2c1ncn2/C=C1\C[C@H]1[C@H](O)CO` [ent-15a] displayed a CC50 in series [3] greater than 100 µM.
